# Results published in ChEMBL document CHEMBL3507680, “University of Dundee, Gates Library screen for HepG2 cell viability”.
# Assay: Human HepG2 cell viability assay in 384 well format
# Format: toxicity, cell-based
# Design: dose 125 nL, time 70.5 hour; concentration not given beside the values
# Conditions: HepG2 cells, read-out: Inhibition
row,Structure (SMILES),cytotoxicity at 70.5 h [%]
1,CC(C)c1nsc(N2CCc3sccc3C2)n1,-11.5
2,NC(=O)N1CC[C@H]2CO[C@H](CNC(=O)c3ccnnc3)[C@H]2C1,-0.828
3,COCCO[C@H]1CCN(C(=O)c2cccnc2)[C@H]1Cc1cnn(C)c1,-96.2
4,O=C(Nc1cccn(Cc2ccccc2)c1=O)c1ccncc1F,14.1
5,COc1ccc(C(=O)CCc2nc(C3CC3)no2)cc1F,-13.6
6,CC(C)c1nc(CN2CCOC(CNc3cccnn3)C2)cs1 (centres undefined),-8.93
7,CC(=O)N1CCC1c1cc(N2CC(O)C2)nc(C)n1 (centres undefined),-11.3
8,O=C(NCc1cccnc1)[C@@H]1C[C@H]2[C@H](CCN2c2ncccn2)O1,-3
9,CN1CCN(C)C2(CCN(Cc3ccc(C4CCCO4)s3)CC2)C1 (centres undefined),-3.28
10,CCOc1ccccc1C(CC(=O)N(C)C)NC(C)=O (centres undefined),-0.953
11,CCN1CCN(C2CCN(Cc3nc(C)c(C)o3)CC2)C1=O,-3.68
12,Cc1cccnc1CCNCC1(O)CCCN(CC2CCCCC2)C1=O (centres undefined),35.9
13,CNc1nc2c(c(C(=O)N3CCCC3)n1)CN(C(=O)CCSC)CC2,-1.55
14,FC(F)(F)Oc1ccc(CN2CCCC(n3cncn3)C2)cc1 (centres undefined),-10.6
15,CCN(CC)CCn1ccnc1-c1cccc(C#N)c1,-4.77
16,O=C(c1ccccc1C(F)(F)F)N1CC[C@@H](N2CCC(O)CC2)[C@H](O)C1,-1.82
17,CCN1CC(CN(C)Cc2nc(-c3ccc(C)o3)oc2C)CC1=O (centres undefined),-6.14
18,CCOc1ccnc(N2CCN(C(=O)c3ccc(OC)cc3)CC2)n1,-12.5
19,CCCn1ncnc1C(C)NC(=O)C1CCN(CC(N)=O)CC1 (centres undefined),-6.92
20,N[C@@H]1c2ccccc2C2(CCN(C(=O)c3ccccc3O)CC2)[C@H]1O,-6.11
21,CN(C)c1ncccc1CNS(=O)(=O)c1ccc(C(N)=O)cc1,-7.08
22,Cc1cc2nc(CN(C)c3ccc(Cl)cc3)cc(=O)n2o1,22
23,O=C(NCc1ccncc1)c1nc2c(o1)CN(C(=O)c1cccnc1)C2,-0.144

row,Structure (SMILES),cytotoxicity at 70.5 h [%]
1,COc1cccc(COc2nc(C(C)C)no2)c1,15.2
2,Cc1ccc(S(=O)(=O)NCCNC(=O)c2ccoc2)cc1F,11.8
3,O=C(N1CCC(O)(C(F)(F)F)C1)C1(c2ccc(Cl)cc2)CC1 (centres undefined),18.9
4,Cn1cccc1CN1CCc2ncnc(-c3cccnc3)c2CC1,-4.34
5,CCS(=O)(=O)N1CCN(C(C)c2ncc(-c3ccccc3)o2)CC1 (centres undefined),-19.2
6,CN1C(=O)COc2cc(NC(=O)CCc3nc4cccnc4[nH]3)ccc21,-11.3
7,CN(Cc1ccccc1)CC1CC2(CO1)CN(Cc1cnn(C)c1)C2 (centres undefined),-6.11
8,Cc1ccccc1C(=O)N1CCC(n2nnc3cc(F)ccc32)CC1,-12.1
9,CC(C)NC(=O)[C@H]1C[C@@H]2[C@@H](C1)OCCN2Cc1cnn(C)c1,-4.89
10,CCCn1cnnc1CNC(=O)CC1C(=O)NCCN1CC(C)(C)C (centres undefined),-12.5
11,O=C(c1ccn(-c2cccc(F)c2)n1)N1CCCC(n2cccn2)C1 (centres undefined),-15.2
12,O=C1CSC(c2ccc(O)cc2)c2c(n(C3CCOCC3)[nH]c2=O)N1 (centres undefined),-23.1
13,CN(C)CCOc1ccc(CNC(=O)c2cccc3[nH]ncc23)cc1,9.57
14,CCc1nc(C)c(C(=O)NCCN2CCCC2)s1,-5.7
15,N#CCCCn1nnc(C2(NC(=O)c3ccccc3)CCCC2)n1,-1.12
16,CC(CO)NC(=O)c1ccc(NCc2ccc(F)c(F)c2)cc1 (centres undefined),-0.038
17,O=C(Nc1cccc2c1CCCC2)c1cccnc1N1CCCNCC1,-5.23
18,Cc1nc(C)c(C(=O)N2CCCc3c(F)cccc32)o1,-5.01
19,CCOc1cc(CN(C)CCC(=O)OC)ccc1OC(F)F,-2.34
20,CC(C)c1nn(C)cc1CNCc1cccc(N(C)C)c1,6.7
21,CC(C)N(C)Cc1cncc2c1CCN(CC(=O)N(C)C)C2,20
22,Cc1ccc(NC2CCN(C(=O)CCc3c(C)noc3C)CC2)nn1,-11.1
23,CCn1nc(C)c2ccn(CC(=O)NC3CC3)c(=O)c21,-9.78

row,Structure (SMILES),cytotoxicity at 70.5 h [%]
1,CCC(CC)c1nnc(NC(=O)N2CCCC(NC(C)=O)C2)s1 (centres undefined),-5.89
2,CC(C)(C)CC(=O)NCC(=O)Nc1ccn(Cc2ccncc2)n1,-20.8
3,NC(=O)c1cccc(OCC(=O)N2CCCC(n3ccnc3)C2)c1 (centres undefined),-11.1
4,CN(Cc1ccsc1)C(=O)c1cc2c([nH]c1=O)CCC2,-4.53
5,CC(C)Cc1nnc(NCc2ccsc2)o1,-5.09
6,CCOc1cccc2c1OCC(=O)N(c1ccc3c(c1)OCO3)C2,14.7
7,COCCN(C)C[C@@H]1CN(C(=O)c2ccc(OC)c(F)c2)C[C@@H]1CO,-7.53
8,CCOCCn1nc(C)cc1C(=O)N1CC[C@](O)(CC)[C@H](O)C1,3.37
9,COCC(=O)N1CCCC1(C(=O)N(C)C)c1cnccn1 (centres undefined),-4.12
10,CN1C[C@@H](O)[C@]2(CCN(C(=O)OCc3ccccc3)C2)S1(=O)=O,-10.5
11,COc1cc(C)c(C)cc1S(=O)(=O)N(C)CC(=O)Nc1ccon1,-15.2
12,Cc1ccc(C(=O)NC2CCN(C(C)C)C2)c(=O)[nH]1 (centres undefined),-14.4
13,Cc1ccc(CNC2CCN(CCc3ccncc3)CC2)s1,1.18
14,CC(=O)N1CCC(n2nccc2-c2cnc(N)nc2)CC1,-6.3
15,CCc1c(C(=O)Nc2ccc(F)c(C(=O)NC)c2)cnn1CC(C)C,0.0762
16,Cc1cccc(-c2noc(CN3CCn4c(nnc4C4CC4)C3)n2)c1,-5
17,N#Cc1cccc(C(=O)N2CCC(Nc3cccnn3)CC2)c1,-19.9
18,Cc1nc(C)n(C2CCCN(C(=O)CCc3ccncc3)C2)n1 (centres undefined),-0.318
19,O=C(C[S+]([O-])Cc1c(Cl)cccc1Cl)N1CCc2sccc2C1 (centres undefined),-7.37
20,CCc1cc(N2CCC(NCCc3ccccc3F)CC2)nc(C)n1,5.19
21,O=C1CO[C@@H]2CN(Cc3cccs3)C[C@H]2N1Cc1ccncc1,7.47
22,CNc1cncc(C2CCCN2Cc2c[nH]cn2)n1 (centres undefined),-18.1
23,O=C(CCn1c(=O)oc2ccccc21)NCC(O)c1ccc(F)c(F)c1 (centres undefined),-4.98

row,Structure (SMILES),cytotoxicity at 70.5 h [%]
1,Cc1cn2nc(N3CCCC3Cn3nc(C)nc3C)sc2n1 (centres undefined),-5.44
2,CCc1ocnc1C(=O)N1CCOCC1CC(=O)c1ccccc1 (centres undefined),-7.1
3,COC(=O)CCN(CC1CCCO1)C(=O)CCc1ccc(OC)cc1 (centres undefined),-7.89
4,CSC1(CNC(=O)NCc2sccc2C)CCOCC1,2.45
5,CC(C)C(=O)Nc1cccc(OCC(=O)NCc2ccccc2F)c1,-5.29
6,Cc1noc(C(C)C)c1C(=O)N1CCCN(Cc2cscn2)CC1,1.02
7,CCOCc1cncc2c1CCN(C(=O)c1cscn1)C2,-4.56
8,Cc1ccoc1C(=O)N1CCNCC1C(=O)NCc1ccncc1 (centres undefined),3.11
9,CC(=O)c1ccc(C(=O)N(C)Cc2nc(-c3ccccn3)no2)s1,8.57
10,CN(C)CCN1CCOCC2(C1)CN(Cc1nccs1)CCO2 (centres undefined),16.3
11,CC(C)c1noc(C(C)N2CCN(Cc3cccnc3)CC2)n1 (centres undefined),-5.62
12,Cc1ccc(N2C[C@H](C)[C@]3(CCN(c4cccnc4)C3=O)C2)nn1,-3.28
13,O=C1CC(c2ccc(Cl)c(Cl)c2)c2c(n3ccsc3nc2=O)N1 (centres undefined),10
14,COCC(c1ccccn1)N(C)C(=O)c1cc(-c2ccc(O)cc2)n[nH]1 (centres undefined),-1.31
15,O=S1(=O)NC2(CCCN(CCc3ccccc3)C2)COc2ccccc21 (centres undefined),0.68
16,Cc1c(NC(=O)N(C)CCCc2cnn(C)c2)cnn1C,-12.2
17,COC(=O)c1ccc(S(=O)(=O)N2CCC(Oc3cccnn3)CC2)cc1,-8.01
18,Cc1cc(CN2CCN(CCOc3cccc(C#N)c3)CC2)no1,5.03
19,Cc1oc(-c2ccsc2)nc1CN1CCCC(c2ccnn2C)C1 (centres undefined),-23.6
20,CCc1c(C(=O)N2CCC3(CC(=O)NC3=O)C2)csc1C (centres undefined),-5.51
21,CS(=O)(=O)c1cc(Cl)cnc1C1CCN(C(=O)C2CC2)CC1,-0.478
22,O=C(Nc1nncs1)c1ccc(O)nc1,0.228
23,OCCN(Cc1ccccc1)Cc1ccsc1,-9.98

row,Structure (SMILES),cytotoxicity at 70.5 h [%]
1,O=C(c1ccccn1)N1C[C@@H]2OCC(=O)N(CC3CCCCC3)[C@@H]2C1,-6.75
2,CN(Cc1cc(C2CC2)[nH]n1)C(=O)c1cnn2ccn(C)c12,-10.4
3,CCCNC1(c2ccc(Cl)cc2)CCOCC1,6.67
4,COc1ccc(CN(C)CC2CCCN2c2cccnn2)cc1F (centres undefined),44.2
5,Cc1cc(C)nc(CCNC(=O)[C@H]2CNC[C@@H](C(=O)N3CCCC3)C2)n1,9.67
6,CCN1CC(CN(C)Cc2nc(-c3cccc(C)c3)oc2C)CC1=O (centres undefined),28.2
7,CC(C(=O)Nc1ccc(N2CCCCC2)nc1)n1cncn1 (centres undefined),26.7
8,CCc1nsc(N2CCOC3(CCCC3)C2)n1,-3.55
9,CN(Cc1ccc(F)cc1)CC1(O)CCN(C(=O)c2ccccc2)C1 (centres undefined),-2.54
10,Cc1ncsc1CN1C[C@@H]2COC[C@]2(COc2ccc(C#N)cn2)C1,-4.4
11,Cc1cccc(C)c1OCC(=O)NC(C)c1nnc2n1CCC2 (centres undefined),-7.81
12,CC(C(=O)N1CCOCC1)n1cncn1 (centres undefined),-4.26
13,COc1cccc(-c2nc(CNCCc3cccnc3)cs2)c1,-19.3
14,Cc1ccc([C@@H]2CN(S(=O)(=O)C(C)C)C[C@H]2N(C)C)cc1,-12.5
15,N#Cc1cccc(S(=O)(=O)NC(=O)COc2ccc3c(c2)CCC3)c1,4.27
16,CNC(=O)c1ccc(CNCc2ccc(SC)c(OC)c2)cc1,27
17,COCCC(=O)N(Cc1ccccn1)Cc1ccccc1C,7.25
18,CCc1ccc(C(=O)N(CC(F)(F)F)C2CCCOC2)o1 (centres undefined),-6.93
19,Cc1cccc(Nc2cc(C3CCCN(CC(N)=O)C3)ccn2)n1 (centres undefined),22.5
20,CS(=O)(=O)NCC(=O)NC1CCc2nccn2C1 (centres undefined),-7.92
21,O=C(Nc1ccncc1)N(CCO)Cc1ccsc1,-20
22,CC(=O)N1CCC(CCNC(C)c2cc(F)cc(F)c2)CC1 (centres undefined),-3.81
